Assay results published in ChEMBL document CHEMBL1201862, “PubChem BioAssay data set” (2004).
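Method: 48-hour compound exposure of cells in 96-well plates, five concentrations, linear interpolation of endpoints. GI50: concentration for 50% inhibition of growth.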 The source made the active and inactive calls. Rule as the data show it: active = GI50 up to about 1.1 µM and inactive = higher. Where a SMILES comes first, the peptide text is derived from it. [ ]: non-standard residue; d: D form. The star is where a group is joined. ξ: configuration not given here. ξNMe2Val = CC(C)C(C(=O)*)N(C)C; NMeV = CN[CH](C(=O)O)C(C)C; NHBn = c1ccc(CN*)cc1

Key:
Assay in all cases: inhibition of tumour cell growth, NCI panel, 48 h
[1] = test system: NCI-H23
[2] = test system: HT-29
[3] = test system: RPMI-8226
[4] = test system: BT-549
[5] = test system: CAKI-1
[6] = test system: OVCAR-8
[7] = test system: 786-0
[8] = test system: Malme-3M
[9] = test system: MOLT-4
[10] = test system: HCT-15
[11] = test system: HCT-116
[12] = test system: T47D
[13] = test system: OVCAR-5
[14] = test system: SF-295
[15] = test system: SW-620
[16] = test system: SK-OV-3
[17] = test system: MDA-MB-231
[18] = test system: RXF 393
[19] = test system: SR
[20] = test system: Hs-578T

SMILES	GI50 [1]	GI50 [2]	GI50 [3]	GI50 [4]	GI50 [5]	GI50 [6]	GI50 [7]	GI50 [8]	GI50 [9]	GI50 [10] [µM]	GI50 [11]	GI50 [12]	GI50 [13]	GI50 [14]	GI50 [15]	GI50 [16]	GI50 [17]	GI50 [18]	GI50 [19]	GI50 [20]
CCOC(=O)Cc1nc2nn(Cc3ccccc3)cc2c(=O)[nH]1	> 100 µM (inactive)	> 100 µM (inactive)	> 100 µM (inactive)	> 100 µM (inactive)	> 100 µM (inactive)	> 100 µM (inactive)	> 100 µM (inactive)	> 100 µM (inactive)	> 100 µM (inactive)	> 100	> 100 µM (inactive)	> 100 µM (inactive)	> 100 µM (inactive)	> 100 µM (inactive)	> 100 µM (inactive)	> 100 µM (inactive)	> 100 µM (inactive)	> 100 µM (inactive)	–	–
CO/C(=N\N=C\c1ccccc1F)c1ccncc1	> 10 µM (inactive)	> 10 µM (inactive)	> 10 µM (inactive)	> 10 µM (inactive)	> 10 µM (inactive)	> 10 µM (inactive)	> 10 µM (inactive)	> 10 µM (inactive)	> 10 µM (inactive)	> 10	> 10 µM (inactive)	> 10 µM (inactive)	> 10 µM (inactive)	> 10 µM (inactive)	> 10 µM (inactive)	–	> 10 µM (inactive)	> 10 µM (inactive)	> 10 µM (inactive)	–
Nc1c(-c2ccc(Cl)c(Cl)c2)c2ccc([N+](=O)[O-])cc2c(=O)n1-c1nc2ccccc2s1	0.266 µM (active)	0.824 µM (active)	0.391 µM (active)	0.762 µM (active)	0.719 µM (active)	0.366 µM (active)	0.767 µM (active)	0.403 µM (active)	1.12 µM (active)	0.46	0.202 µM (active)	0.386 µM (active)	1.92 µM (inactive)	0.551 µM (active)	0.574 µM (active)	0.689 µM (active)	0.614 µM (active)	0.689 µM (active)	0.417 µM (active)	–
C=CC[C@@H]1C=C[C@@H](C(=O)OC)n2c(=O)n(-c3ccccc3)c(=O)n21	> 100 µM (inactive)	> 100 µM (inactive)	> 100 µM (inactive)	> 100 µM (inactive)	> 100 µM (inactive)	> 100 µM (inactive)	> 100 µM (inactive)	–	> 100 µM (inactive)	> 100	> 100 µM (inactive)	> 100 µM (inactive)	> 100 µM (inactive)	> 100 µM (inactive)	> 100 µM (inactive)	> 100 µM (inactive)	> 100 µM (inactive)	–	> 100 µM (inactive)	> 100 µM (inactive)
Oc1ccc2c3c1OC1c4[nH]c5c(c4CC4(O)C(C2)N(CC2CC2)CC[C@]314)CC1(O)C2Cc3ccc(O)c4c3[C@@]1(CCN2CC1CC1)C5O4 (some centres undefined)	> 100 µM (inactive)	20 µM (inactive)	25.2 µM (inactive)	> 100 µM (inactive)	> 100 µM (inactive)	51.9 µM (inactive)	21.3 µM (inactive)	17 µM (inactive)	22.4 µM (inactive)	> 100	17.5 µM (inactive)	18.6 µM (inactive)	28 µM (inactive)	19.6 µM (inactive)	21.9 µM (inactive)	43 µM (inactive)	24.4 µM (inactive)	18.1 µM (inactive)	27.4 µM (inactive)	–
Cc1c2c(c(O)c3c(O)cccc13)C(=O)C1(O)C(=O)C(C(=O)NCNc3ccc(C(N)=O)cn3)=C(O)C(N(C)C)C1C2 (centres undefined)	7.74 µM (inactive)	3.89 µM (inactive)	1.83 µM (inactive)	3.48 µM (inactive)	5.36 µM (inactive)	3.21 µM (inactive)	5.52 µM (inactive)	3.28 µM (inactive)	2.74 µM (inactive)	2.8	4.06 µM (inactive)	5.61 µM (inactive)	5.02 µM (inactive)	2.87 µM (inactive)	3.52 µM (inactive)	3.1 µM (inactive)	3.78 µM (inactive)	2.89 µM (inactive)	3.05 µM (inactive)	–
COC(=O)c1ccccc1C1CN=NC12Cc1c(C)ccc(C)c1C2=O (centres undefined)	> 100 µM (inactive)	> 100 µM (inactive)	–	> 100 µM (inactive)	> 100 µM (inactive)	> 100 µM (inactive)	> 100 µM (inactive)	36.6 µM (inactive)	88.5 µM (inactive)	> 100	82.6 µM (inactive)	> 100 µM (inactive)	> 100 µM (inactive)	> 100 µM (inactive)	> 100 µM (inactive)	> 100 µM (inactive)	> 100 µM (inactive)	> 100 µM (inactive)	–	> 100 µM (inactive)
COC(=O)c1ccccc1C1CN=NC12Cc1c(ccc(C)c1C)C2=O (centres undefined)	> 100 µM (inactive)	> 100 µM (inactive)	–	> 100 µM (inactive)	> 100 µM (inactive)	61.1 µM (inactive)	38.4 µM (inactive)	> 100 µM (inactive)	> 100 µM (inactive)	> 100	> 100 µM (inactive)	> 100 µM (inactive)	> 100 µM (inactive)	> 100 µM (inactive)	> 100 µM (inactive)	72.8 µM (inactive)	81.5 µM (inactive)	> 100 µM (inactive)	–	80.9 µM (inactive)
CC(C)=CCC/C(C)=C/CO [GERANIOL]	> 100 µM (inactive)	> 100 µM (inactive)	> 100 µM (inactive)	> 100 µM (inactive)	> 100 µM (inactive)	> 100 µM (inactive)	> 100 µM (inactive)	> 100 µM (inactive)	> 100 µM (inactive)	> 100	> 100 µM (inactive)	> 100 µM (inactive)	> 100 µM (inactive)	> 100 µM (inactive)	> 100 µM (inactive)	> 100 µM (inactive)	> 100 µM (inactive)	–	–	> 100 µM (inactive)
CC(=O)Oc1cc(S(=O)(=O)Nc2n[nH]c(Nc3ccc(C)cc3)n2)c(S)cc1Cl	> 100 µM (inactive)	> 100 µM (inactive)	> 100 µM (inactive)	> 100 µM (inactive)	> 100 µM (inactive)	> 100 µM (inactive)	> 100 µM (inactive)	> 100 µM (inactive)	83.2 µM (inactive)	> 100	> 100 µM (inactive)	> 100 µM (inactive)	> 100 µM (inactive)	> 100 µM (inactive)	> 100 µM (inactive)	–	51.1 µM (inactive)	–	66.7 µM (inactive)	79.3 µM (inactive)
Clc1cccc(Cl)c1C1SCc2nc3cc4ccccc4cc3n21 (centres undefined)	> 100 µM (inactive)	> 100 µM (inactive)	> 100 µM (inactive)	> 100 µM (inactive)	> 100 µM (inactive)	> 100 µM (inactive)	> 100 µM (inactive)	> 100 µM (inactive)	> 100 µM (inactive)	> 100	> 100 µM (inactive)	> 100 µM (inactive)	> 100 µM (inactive)	> 100 µM (inactive)	> 100 µM (inactive)	> 100 µM (inactive)	> 100 µM (inactive)	> 100 µM (inactive)	–	> 100 µM (inactive)
Cc1n(Cc2ccccc2)c2c([n+]1C)C(=O)c1ccccc1C2=O	0.0434 µM (active)	0.0417 µM (active)	0.0296 µM (active)	0.0822 µM (active)	3.15 µM (inactive)	0.0431 µM (active)	0.0845 µM (active)	0.0171 µM (active)	0.0421 µM (active)	2.56	0.0416 µM (active)	0.215 µM (active)	0.167 µM (active)	0.199 µM (active)	0.0455 µM (active)	0.389 µM (active)	0.0583 µM (active)	0.294 µM (active)	–	0.415 µM (active)
CNC(=S)N1CCN(C(C)=O)C1=S	27.7 µM (inactive)	67.8 µM (inactive)	–	12.9 µM (inactive)	50 µM (inactive)	92.5 µM (inactive)	> 100 µM (inactive)	12.7 µM (inactive)	30.8 µM (inactive)	34.4	> 100 µM (inactive)	19.5 µM (inactive)	> 100 µM (inactive)	25.4 µM (inactive)	86.5 µM (inactive)	66.8 µM (inactive)	4.27 µM (inactive)	–	23.7 µM (inactive)	23.6 µM (inactive)
O=C1N=C(S)NNC12c1ccccc1-c1ccccc12	> 10 µM (inactive)	> 10 µM (inactive)	> 10 µM (inactive)	> 10 µM (inactive)	> 10 µM (inactive)	> 10 µM (inactive)	> 10 µM (inactive)	> 10 µM (inactive)	> 10 µM (inactive)	> 10	–	1.98 µM (inactive)	–	–	> 10 µM (inactive)	> 10 µM (inactive)	> 10 µM (inactive)	–	> 10 µM (inactive)	6.18 µM (inactive)
CC(C)C(NC(=O)C(C(C)C)N(C)C)C(=O)N(C)C(C(=O)N1CCCC1C(=O)N1CCCC1C(=O)NCc1ccccc1)C(C)C (centres undefined) (ξNMe2Val-V[NMeV]PP-NHBn; configuration not given here)	< 0.0001 µM (active)	< 0.0001 µM (active)	< 0.0001 µM (active)	< 0.0001 µM (active)	< 0.0001 µM (active)	< 0.0001 µM (active)	< 0.0001 µM (active)	< 0.01 µM (active)	< 0.0001 µM (active)	< 0.0001	< 0.0001 µM (active)	–	0.0675 µM (active)	< 0.0001 µM (active)	< 0.0001 µM (active)	0.000221 µM (active)	< 0.0001 µM (active)	0.0175 µM (active)	< 0.0001 µM (active)	< 0.0001 µM (active)
